Test results taken from ChEMBL document CHEMBL1143296, “Thienopyrimidine-based dual EGFR/ErbB-2 inhibitors” (Bioorg Med Chem Lett, 2009).

What follows are compounds tested on HN5 (assay: Antiproliferative activity against human HN5 cells expressing EGFR after 72 hrs by CTG assay). Conditions: HN5, 72 h.

Compound	IC50 [nM]
Fc1cccc(COc2ccc(Nc3ncnc4sc(-c5cccs5)cc34)cc2Cl)c1 [GW684626B]	10100
Fc1cccc(COc2ccc(Nc3ncnc4sc(-c5ccco5)cc34)cc2Cl)c1 [GSK-969786A]	> 30000
CS(=O)(=O)CCNCc1ccc(-c2cc3ncnc(Nc4ccc(OCc5cccc(F)c5)c(Cl)c4)c3s2)[nH]1	770
Fc1cccc(COc2ccc(Nc3ncnc4cc(-c5cccs5)sc34)cc2Cl)c1	2190
CS(=O)(=O)CCNCc1ccc(-c2cc3ncnc(Nc4ccc(OCc5cccc(F)c5)c(Cl)c4)c3s2)o1	410
CS(=O)(=O)CCNCc1ccc(-c2cc3c(Nc4ccc(OCc5cccc(F)c5)c(Cl)c4)ncnc3s2)o1	420
Fc1cccc(COc2ccc(Nc3ncnc4cc(-c5ccco5)sc34)cc2Cl)c1	8090
CN(C)Cc1ccc(-c2cc3ncnc(Nc4ccc(OCc5cccc(F)c5)c(Cl)c4)c3s2)o1	1220

What follows are compounds tested on BT-474 (assay: Antiproliferative activity against human BT474 cells expressing ErbB2 after 72 hrs by CTG assay). Conditions: BT-474, 72 h.

Compound	IC50 [nM]
CS(=O)(=O)CCNCc1ccc(-c2cc3ncnc(Nc4ccc(OCc5cccc(F)c5)c(Cl)c4)c3s2)[nH]1	630
Fc1cccc(COc2ccc(Nc3ncnc4cc(-c5cccs5)sc34)cc2Cl)c1	5770
Fc1cccc(COc2ccc(Nc3ncnc4cc(-c5ccco5)sc34)cc2Cl)c1	21200
CN(C)Cc1ccc(-c2cc3ncnc(Nc4ccc(OCc5cccc(F)c5)c(Cl)c4)c3s2)o1	1880

Next, values leading:

IC50 [nM]	Compound
3220	Fc1cccc(COc2ccc(Nc3ncnc4sc(-c5cccs5)cc34)cc2Cl)c1 [GW684626B]
> 30000	Fc1cccc(COc2ccc(Nc3ncnc4sc(-c5ccco5)cc34)cc2Cl)c1 [GSK-969786A]
420	CS(=O)(=O)CCNCc1ccc(-c2cc3ncnc(Nc4ccc(OCc5cccc(F)c5)c(Cl)c4)c3s2)o1
420	CS(=O)(=O)CCNCc1ccc(-c2cc3c(Nc4ccc(OCc5cccc(F)c5)c(Cl)c4)ncnc3s2)o1

What follows are compounds tested on HFF (assay: Antiproliferative activity against HFF after 72 hrs by CTG assay). Conditions: Homo sapiens.

Compound	IC50 [nM]
Fc1cccc(COc2ccc(Nc3ncnc4sc(-c5cccs5)cc34)cc2Cl)c1 [GW684626B]	9720
Fc1cccc(COc2ccc(Nc3ncnc4sc(-c5ccco5)cc34)cc2Cl)c1 [GSK-969786A]	> 30000
CS(=O)(=O)CCNCc1ccc(-c2cc3ncnc(Nc4ccc(OCc5cccc(F)c5)c(Cl)c4)c3s2)[nH]1	3730
Fc1cccc(COc2ccc(Nc3ncnc4cc(-c5cccs5)sc34)cc2Cl)c1	10700
CS(=O)(=O)CCNCc1ccc(-c2cc3ncnc(Nc4ccc(OCc5cccc(F)c5)c(Cl)c4)c3s2)o1	> 30000
CS(=O)(=O)CCNCc1ccc(-c2cc3c(Nc4ccc(OCc5cccc(F)c5)c(Cl)c4)ncnc3s2)o1	19500
Fc1cccc(COc2ccc(Nc3ncnc4cc(-c5ccco5)sc34)cc2Cl)c1	> 30000
CN(C)Cc1ccc(-c2cc3ncnc(Nc4ccc(OCc5cccc(F)c5)c(Cl)c4)c3s2)o1	4460

What follows are compounds tested on HN5 (assay: Antiproliferative activity against human HN5 cells expressing EGFR by MEB assay). Conditions: not given.

Compound	IC50 [nM]
OCc1ccc(-c2cc3ncnc(Nc4ccc(OCc5cccc(F)c5)c(Cl)c4)c3s2)o1	100
Fc1cccc(COc2ccc(Nc3ncnc4cc(-c5ccc[nH]5)sc34)cc2Cl)c1	570
CS(=O)(=O)CCNCc1cc(-c2cc3ncnc(Nc4ccc(OCc5cccc(F)c5)c(Cl)c4)c3s2)cs1	100
Fc1cccc(COc2ccc(Nc3ncnc4sc(-c5ccc[nH]5)cc34)cc2Cl)c1	2710

What follows are compounds tested on BT-474 (assay: Antiproliferative activity against human BT474 cells expressing ErbB2 by MEB assay). Conditions: not given.

IC50 [nM]	Compound
720	OCc1ccc(-c2cc3ncnc(Nc4ccc(OCc5cccc(F)c5)c(Cl)c4)c3s2)o1
540	Fc1cccc(COc2ccc(Nc3ncnc4cc(-c5ccc[nH]5)sc34)cc2Cl)c1
600	CS(=O)(=O)CCNCc1cc(-c2cc3ncnc(Nc4ccc(OCc5cccc(F)c5)c(Cl)c4)c3s2)cs1
730	CS(=O)(=O)CCNCc1cc(-c2cc3ncnc(Nc4ccc(OCc5cccc(F)c5)c(Cl)c4)c3s2)co1
100	CS(=O)(=O)CCNCc1ccc(-c2ccc3ncnc(Nc4ccc(OCc5cccc(F)c5)c(Cl)c4)c3c2)o1 [LAPATINIB DITOSYLATE]
1980	Fc1cccc(COc2ccc(Nc3ncnc4sc(-c5ccc[nH]5)cc34)cc2Cl)c1

What follows are compounds tested on HFF (assay: Antiproliferative activity against HFF after 72 hrs by MEB assay). Conditions: Homo sapiens.

Compound	IC50 [nM]
OCc1ccc(-c2cc3ncnc(Nc4ccc(OCc5cccc(F)c5)c(Cl)c4)c3s2)o1	9390
Fc1cccc(COc2ccc(Nc3ncnc4cc(-c5ccc[nH]5)sc34)cc2Cl)c1	2370
CS(=O)(=O)CCNCc1cc(-c2cc3ncnc(Nc4ccc(OCc5cccc(F)c5)c(Cl)c4)c3s2)cs1	> 30000
CS(=O)(=O)CCNCc1cc(-c2cc3ncnc(Nc4ccc(OCc5cccc(F)c5)c(Cl)c4)c3s2)co1	7950
Fc1cccc(COc2ccc(Nc3ncnc4sc(-c5ccc[nH]5)cc34)cc2Cl)c1	> 3000

These compounds were tested against T1, Receptor tyrosine-protein kinase erbB-2 (Homo sapiens, UniProt P04626) (assay: Inhibition of ErbB2 intracellular autophosphorylation of ErbB2 in human BT474 cells by DELFIA assay). Conditions: not given.
Assay type: cell-based, BT-474

T1 sequence (P04626 whole entry): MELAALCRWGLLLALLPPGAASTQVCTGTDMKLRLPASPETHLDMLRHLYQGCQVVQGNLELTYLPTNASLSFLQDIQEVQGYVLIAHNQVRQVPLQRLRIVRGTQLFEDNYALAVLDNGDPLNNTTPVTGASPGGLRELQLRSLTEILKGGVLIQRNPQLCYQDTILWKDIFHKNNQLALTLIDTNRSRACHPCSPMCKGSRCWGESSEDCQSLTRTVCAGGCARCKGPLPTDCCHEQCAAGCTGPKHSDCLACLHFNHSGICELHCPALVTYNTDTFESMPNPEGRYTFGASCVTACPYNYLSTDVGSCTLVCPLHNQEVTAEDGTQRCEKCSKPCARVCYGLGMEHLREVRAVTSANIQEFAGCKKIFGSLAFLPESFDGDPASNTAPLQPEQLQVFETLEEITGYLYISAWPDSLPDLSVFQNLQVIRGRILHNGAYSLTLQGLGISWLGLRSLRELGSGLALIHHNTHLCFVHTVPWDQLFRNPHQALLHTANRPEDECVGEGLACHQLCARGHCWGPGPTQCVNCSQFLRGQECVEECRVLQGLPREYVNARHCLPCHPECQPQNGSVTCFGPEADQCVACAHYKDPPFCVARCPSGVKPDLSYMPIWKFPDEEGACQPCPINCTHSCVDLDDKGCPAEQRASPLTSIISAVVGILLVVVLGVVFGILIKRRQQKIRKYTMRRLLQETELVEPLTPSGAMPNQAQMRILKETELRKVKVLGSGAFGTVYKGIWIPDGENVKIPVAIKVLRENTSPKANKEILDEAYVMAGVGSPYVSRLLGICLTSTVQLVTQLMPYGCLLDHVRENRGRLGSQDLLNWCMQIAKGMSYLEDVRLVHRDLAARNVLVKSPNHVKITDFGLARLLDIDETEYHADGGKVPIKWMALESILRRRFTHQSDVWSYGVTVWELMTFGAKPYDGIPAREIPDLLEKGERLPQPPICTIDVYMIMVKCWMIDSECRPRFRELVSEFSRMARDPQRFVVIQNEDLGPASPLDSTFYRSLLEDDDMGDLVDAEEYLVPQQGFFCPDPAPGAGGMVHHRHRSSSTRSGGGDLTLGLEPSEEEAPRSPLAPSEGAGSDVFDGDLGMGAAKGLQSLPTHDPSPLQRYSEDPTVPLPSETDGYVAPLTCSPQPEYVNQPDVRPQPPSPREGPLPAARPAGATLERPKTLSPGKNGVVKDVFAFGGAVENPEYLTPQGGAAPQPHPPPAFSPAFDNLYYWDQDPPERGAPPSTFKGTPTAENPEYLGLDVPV

IC50 [nM]	Compound
431	CS(=O)(=O)CCNCc1ccc(-c2cc3ncnc(Nc4ccc(OCc5cccc(F)c5)c(Cl)c4)c3s2)[nH]1
826	Fc1cccc(COc2ccc(Nc3ncnc4cc(-c5ccc[nH]5)sc34)cc2Cl)c1

These compounds were tested against T1, Receptor tyrosine-protein kinase erbB-2. Conditions: not given.

Compound	IC50 [nM]
CN1CCN(Cc2ccc(-c3cc4ncnc(Nc5ccc(OCc6cccc(F)c6)c(Cl)c5)c4s3)o2)CC1 [GW784684X]	250
OCc1ccc(-c2cc3ncnc(Nc4ccc(OCc5cccc(F)c5)c(Cl)c4)c3s2)o1	122
CS(=O)(=O)CCNCc1ccc(-c2cc3ncnc(Nc4ccc(OCc5cccc(F)c5)c(Cl)c4)c3s2)[nH]1	113
Fc1cccc(COc2ccc(Nc3ncnc4cc(-c5ccc[nH]5)sc34)cc2Cl)c1	121
Fc1cccc(COc2ccc(Nc3ncnc4cc(-c5cccs5)sc34)cc2Cl)c1	113
Fc1cccc(COc2ccc(Nc3ncnc4sc(-c5ccc(CNCc6ccccc6)o5)cc34)cc2Cl)c1	898
CN(C)Cc1ccc(-c2cc3c(Nc4ccc(OCc5cccc(F)c5)c(Cl)c4)ncnc3s2)[nH]1	246
CS(=O)(=O)CCNCc1cc(-c2cc3c(Nc4ccc(OCc5cccc(F)c5)c(Cl)c4)ncnc3s2)cs1 [GSK-300014A]	299
Fc1cccc(COc2ccc(Nc3ncnc4cc(-c5ccco5)sc34)cc2Cl)c1	709
CS(=O)(=O)CCNCc1ccc(-c2cc3c(Nc4ccc(OCc5cccc(F)c5)c(Cl)c4)ncnc3s2)[nH]1	153
CN(C)Cc1ccc(-c2cc3ncnc(Nc4ccc(OCc5cccc(F)c5)c(Cl)c4)c3s2)o1	146
Fc1cccc(COc2ccc(Nc3ncnc4sc(-c5ccc[nH]5)cc34)cc2Cl)c1	203

Further lines, results first:

IC50 [nM]	Compound
43	Fc1cccc(COc2ccc(Nc3ncnc4sc(-c5cccs5)cc34)cc2Cl)c1 [GW684626B]
14	Fc1cccc(COc2ccc(Nc3ncnc4sc(-c5ccco5)cc34)cc2Cl)c1 [GSK-969786A]
111	CCNCc1ccc(-c2cc3c(Nc4ccc(OCc5cccc(F)c5)c(Cl)c4)ncnc3s2)[nH]1
68	N#CCNCc1ccc(-c2cc3ncnc(Nc4ccc(OCc5cccc(F)c5)c(Cl)c4)c3s2)o1
71	CS(=O)(=O)CCNCc1ccc(-c2cc3ncnc(Nc4ccc(OCc5cccc(F)c5)c(Cl)c4)c3s2)o1
76	CN(C)Cc1ccc(-c2cc3ncnc(Nc4ccc(OCc5cccc(F)c5)c(Cl)c4)c3s2)[nH]1
6	CS(=O)(=O)CCNCc1ccc(-c2cc3c(Nc4ccc(OCc5cccc(F)c5)c(Cl)c4)ncnc3s2)o1
31	CS(=O)(=O)CCNCc1cc(-c2cc3ncnc(Nc4ccc(OCc5cccc(F)c5)c(Cl)c4)c3s2)cs1
68	CCNCc1ccc(-c2cc3ncnc(Nc4ccc(OCc5cccc(F)c5)c(Cl)c4)c3s2)[nH]1
95	CS(=O)(=O)CCNCc1ccc(-c2cc3c(Nc4ccc(OCc5cccc(F)c5)c(Cl)c4)ncnc3s2)s1

These compounds were tested against Epidermal growth factor receptor (Homo sapiens, UniProt P00533). Conditions: not given.
Sequence of Epidermal growth factor receptor (P00533 whole entry): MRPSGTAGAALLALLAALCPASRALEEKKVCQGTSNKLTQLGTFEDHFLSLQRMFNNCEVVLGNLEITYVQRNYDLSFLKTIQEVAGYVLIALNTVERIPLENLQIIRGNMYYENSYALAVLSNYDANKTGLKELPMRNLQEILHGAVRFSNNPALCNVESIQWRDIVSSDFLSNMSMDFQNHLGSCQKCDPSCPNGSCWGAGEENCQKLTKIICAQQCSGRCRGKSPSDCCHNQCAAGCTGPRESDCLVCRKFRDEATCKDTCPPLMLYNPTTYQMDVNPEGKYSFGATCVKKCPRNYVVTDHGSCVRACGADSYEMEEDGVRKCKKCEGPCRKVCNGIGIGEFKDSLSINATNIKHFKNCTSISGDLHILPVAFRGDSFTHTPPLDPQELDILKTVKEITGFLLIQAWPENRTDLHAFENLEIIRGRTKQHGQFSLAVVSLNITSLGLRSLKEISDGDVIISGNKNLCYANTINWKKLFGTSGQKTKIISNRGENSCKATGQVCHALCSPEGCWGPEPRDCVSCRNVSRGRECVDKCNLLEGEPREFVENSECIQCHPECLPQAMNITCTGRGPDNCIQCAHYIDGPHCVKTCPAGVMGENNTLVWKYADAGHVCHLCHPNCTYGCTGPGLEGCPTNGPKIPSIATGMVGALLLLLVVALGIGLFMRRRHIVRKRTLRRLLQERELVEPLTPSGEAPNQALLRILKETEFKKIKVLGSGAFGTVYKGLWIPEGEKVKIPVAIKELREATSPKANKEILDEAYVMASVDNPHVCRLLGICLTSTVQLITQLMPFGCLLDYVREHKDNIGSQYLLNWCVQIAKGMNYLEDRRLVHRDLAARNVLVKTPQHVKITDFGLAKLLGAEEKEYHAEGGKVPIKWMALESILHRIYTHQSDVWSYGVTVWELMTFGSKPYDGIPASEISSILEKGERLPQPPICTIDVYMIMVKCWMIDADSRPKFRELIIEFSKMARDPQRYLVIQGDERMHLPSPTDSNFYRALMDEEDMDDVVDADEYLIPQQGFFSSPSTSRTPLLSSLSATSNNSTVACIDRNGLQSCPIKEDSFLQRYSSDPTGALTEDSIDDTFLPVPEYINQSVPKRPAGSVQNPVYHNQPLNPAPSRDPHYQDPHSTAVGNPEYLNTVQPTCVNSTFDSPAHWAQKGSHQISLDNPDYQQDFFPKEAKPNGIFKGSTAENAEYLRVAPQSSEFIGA

Compound	IC50 [nM]
CN1CCN(Cc2ccc(-c3cc4ncnc(Nc5ccc(OCc6cccc(F)c6)c(Cl)c5)c4s3)o2)CC1 [GW784684X]	5
OCc1ccc(-c2cc3ncnc(Nc4ccc(OCc5cccc(F)c5)c(Cl)c4)c3s2)o1	3
CS(=O)(=O)CCNCc1ccc(-c2cc3ncnc(Nc4ccc(OCc5cccc(F)c5)c(Cl)c4)c3s2)[nH]1	7
Fc1cccc(COc2ccc(Nc3ncnc4cc(-c5ccc[nH]5)sc34)cc2Cl)c1	68
Fc1cccc(COc2ccc(Nc3ncnc4cc(-c5cccs5)sc34)cc2Cl)c1	8
Fc1cccc(COc2ccc(Nc3ncnc4sc(-c5ccc(CNCc6ccccc6)o5)cc34)cc2Cl)c1	54
CN(C)Cc1ccc(-c2cc3c(Nc4ccc(OCc5cccc(F)c5)c(Cl)c4)ncnc3s2)[nH]1	68
CS(=O)(=O)CCNCc1cc(-c2cc3c(Nc4ccc(OCc5cccc(F)c5)c(Cl)c4)ncnc3s2)cs1 [GSK-300014A]	304
Fc1cccc(COc2ccc(Nc3ncnc4cc(-c5ccco5)sc34)cc2Cl)c1	10
CS(=O)(=O)CCNCc1ccc(-c2cc3c(Nc4ccc(OCc5cccc(F)c5)c(Cl)c4)ncnc3s2)[nH]1	138
CN(C)Cc1ccc(-c2cc3ncnc(Nc4ccc(OCc5cccc(F)c5)c(Cl)c4)c3s2)o1	2
Fc1cccc(COc2ccc(Nc3ncnc4sc(-c5ccc[nH]5)cc34)cc2Cl)c1	115

Results, then the compound that gave them:

IC50 [nM]	Compound
9	Fc1cccc(COc2ccc(Nc3ncnc4sc(-c5cccs5)cc34)cc2Cl)c1 [GW684626B]
15	Fc1cccc(COc2ccc(Nc3ncnc4sc(-c5ccco5)cc34)cc2Cl)c1 [GSK-969786A]
121	CCNCc1ccc(-c2cc3c(Nc4ccc(OCc5cccc(F)c5)c(Cl)c4)ncnc3s2)[nH]1
1	CS(=O)(=O)CCNCc1ccc(-c2cc3ncnc(Nc4ccc(OCc5cccc(F)c5)c(Cl)c4)c3s2)o1
4	CN(C)Cc1ccc(-c2cc3ncnc(Nc4ccc(OCc5cccc(F)c5)c(Cl)c4)c3s2)[nH]1
12	CS(=O)(=O)CCNCc1ccc(-c2cc3c(Nc4ccc(OCc5cccc(F)c5)c(Cl)c4)ncnc3s2)o1
3	CS(=O)(=O)CCNCc1cc(-c2cc3ncnc(Nc4ccc(OCc5cccc(F)c5)c(Cl)c4)c3s2)cs1
6	CCNCc1ccc(-c2cc3ncnc(Nc4ccc(OCc5cccc(F)c5)c(Cl)c4)c3s2)[nH]1
96	CS(=O)(=O)CCNCc1ccc(-c2cc3c(Nc4ccc(OCc5cccc(F)c5)c(Cl)c4)ncnc3s2)s1
